# In patent US9643993B2, “Crystalline polymorphic form of ulipristal acetate” (ASKA PHARMACEUTICAL CO., LTD., priority 2012, dated 2017):
# Where two headings read alike, the source gives them in different places.
# Assays:
# [1] = dog, in vivo, po, 25 mg/kg
# Protocol: (§1) For each of ulipristal acetate samples obtained in Examples and Comparative Example, the absorption test was performed as follows. The ulipristal acetate was filled into a gelatin capsule shell (manufacturer: Qualicaps Co., Ltd., size: No. 00, lot: C0079A) to produce a capsule. The capsule was orally administered to 6 female dogs at a dose of 25 mg/kg (in terms of ulipristal acetate). The blood was collected 0.5, 1, 2, 4, 6, 24, and 48 hours after the oral administration. Then the sample was centrifuged to give a plasma. The concentration of the ulipristal acetate in the plasma was measured by a LC-MS/MS (liquid chromatography-tandem mass spectrometry) method, and the elimination half-life (T112), the time to the maximum plasma concentration (Tmax), the maximum plasma concentration (Cmax), the area under the plasma concentration-time curve (AUC), and the mean residence time (MRT) were calculated. The capsule was administered to each female dog twice at dosing intervals (washout period) of one week by crossover method.
# Absorption test in dog = details: female dogs, oral capsule, 25 mg/kg
# Protocol: as §1
# [2] = Solubility in ethanol/water (10/90) mixed solvent at 37° C.; details: ethanol/water (volume ratio)=10/90, 37° C., stirred 5 minutes, HPLC
# Protocol: [Solubility] For each of ulipristal acetate samples obtained in Examples and Comparative Example, the solubility was determined as follows. The ulipristal acetate (40 mg) was added to 40 mL of a mixed solvent containing ethanol and water [ethanol/water (volume ratio)=10/90] having a temperature of 37° C. to prepare a test sample. The test sample was stirred by a magnetic stirrer for 5 minutes. Then a portion of the suspension was separated. The solid of the separated portion was filtered out, and the ulipristal acetate content of the residue was quantitatively determined using a high-performance liquid chromatography (column: ODS, column temperature: 40° C., eluate: 0.1% trifluoroacetic acid aqueous solution/acetonitrile mixture (volume ratio 3:2), rate of flow: 1.0 mL/minute, detection: UV 302 nm), and the solubility was calculated.
structure (smiles),measurement,setting,value
"CC(=O)O[C@]1(C(C)=O)CCC2C3CCC4=CC(=O)CCC4=C3[C@@H](c3ccc(N(C)C)cc3)C[C@@]21C (stereo partly drawn) [Comparative Example, 17alpha-acetoxy-11beta-(4-N,N-dimethylaminophenyl)-19-norpregna-4,9-diene-3,20-dione]",AUC0-inf,[1],9390.7 ng·h/mL
same,AUC0-t,[1],8447.4 ng·h/mL
same,Cmax,[1],1490.7 ng/mL
same,MRTinf,[1],16.6 h
same,MRTlast,[1],11.8 h
same,T1/2,[1],14.9 h
same,Tmax,[1],1.8 h
"CC(=O)O[C@]1(C(C)=O)CCC2C3CCC4=CC(=O)CCC4=C3[C@@H](c3ccc(N(C)C)cc3)C[C@@]21C (stereo partly drawn) [Example 1, 17alpha-acetoxy-11beta-(4-N,N-dimethylaminophenyl)-19-norpregna-4,9-diene-3,20-dione]",AUC0-inf,"Absorption test in dog; plasma, LC-MS/MS",18078.4 ng·h/mL
same,AUC0-t,"Absorption test in dog; plasma, LC-MS/MS",12194.3 ng·h/mL
same,Cmax,"Absorption test in dog; plasma, LC-MS/MS",2200.2 ng/mL
same,MRTinf,"Absorption test in dog; plasma, LC-MS/MS",37.7 h
same,MRTlast,"Absorption test in dog; plasma, LC-MS/MS",11.7 h
same,T1/2,"Absorption test in dog; plasma, LC-MS/MS",37.3 h
same,Tmax,"Absorption test in dog; plasma, LC-MS/MS",1.2 h
same,Pharmacokinetics compared with Comparative Example (in words),Absorption test in dog; summary of Table 5,excellent pharmacokinetics
same,Solubility,[2],11.2 µg/mL
